Measurements from patent publication US20250100996A1, “HETEROCYCLOALKYL AND HETEROARYL COMPOUNDS AND PHARMACEUTICAL COMPOSITIONS THAT MODULATE IKZF2” (Plexium, Inc., priority 2021, published 2025).

Legend:
Format in all cases: cell-based
IKZF3 (Aiolos) = molecular target: T1, IKZF3 (Aiolos) (Homo sapiens, UniProt Q9UKT9); test: IKZF3 reporter degradation assay (HEK 293T IKZF3-mNeonGreen reporter cell line); details: HEK 293T IKZF3-mNeonGreen reporter, 24 hours incubation; for inhibition at 1 µM: HEK-293T, 24 h
T1 construct: Leu-Asp junction (codons ctcgac before the linker); mScarlet (behind P2A) (C, cleaved yes); expressed in transfected cells
T1 sequence (Q96SW2 whole entry partner): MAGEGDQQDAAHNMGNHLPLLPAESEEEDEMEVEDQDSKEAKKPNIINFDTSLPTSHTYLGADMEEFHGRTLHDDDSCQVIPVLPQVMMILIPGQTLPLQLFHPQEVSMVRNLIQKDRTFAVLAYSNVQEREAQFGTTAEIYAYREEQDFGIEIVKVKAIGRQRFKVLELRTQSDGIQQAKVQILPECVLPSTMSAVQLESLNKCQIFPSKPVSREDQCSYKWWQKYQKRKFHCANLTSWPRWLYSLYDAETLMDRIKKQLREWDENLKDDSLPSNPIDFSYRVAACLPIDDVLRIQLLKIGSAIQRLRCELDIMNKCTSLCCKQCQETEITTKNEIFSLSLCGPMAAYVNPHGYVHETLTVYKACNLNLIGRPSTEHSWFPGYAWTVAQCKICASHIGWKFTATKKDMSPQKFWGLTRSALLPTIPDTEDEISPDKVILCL
T1 sequence (Q16531 whole entry partner): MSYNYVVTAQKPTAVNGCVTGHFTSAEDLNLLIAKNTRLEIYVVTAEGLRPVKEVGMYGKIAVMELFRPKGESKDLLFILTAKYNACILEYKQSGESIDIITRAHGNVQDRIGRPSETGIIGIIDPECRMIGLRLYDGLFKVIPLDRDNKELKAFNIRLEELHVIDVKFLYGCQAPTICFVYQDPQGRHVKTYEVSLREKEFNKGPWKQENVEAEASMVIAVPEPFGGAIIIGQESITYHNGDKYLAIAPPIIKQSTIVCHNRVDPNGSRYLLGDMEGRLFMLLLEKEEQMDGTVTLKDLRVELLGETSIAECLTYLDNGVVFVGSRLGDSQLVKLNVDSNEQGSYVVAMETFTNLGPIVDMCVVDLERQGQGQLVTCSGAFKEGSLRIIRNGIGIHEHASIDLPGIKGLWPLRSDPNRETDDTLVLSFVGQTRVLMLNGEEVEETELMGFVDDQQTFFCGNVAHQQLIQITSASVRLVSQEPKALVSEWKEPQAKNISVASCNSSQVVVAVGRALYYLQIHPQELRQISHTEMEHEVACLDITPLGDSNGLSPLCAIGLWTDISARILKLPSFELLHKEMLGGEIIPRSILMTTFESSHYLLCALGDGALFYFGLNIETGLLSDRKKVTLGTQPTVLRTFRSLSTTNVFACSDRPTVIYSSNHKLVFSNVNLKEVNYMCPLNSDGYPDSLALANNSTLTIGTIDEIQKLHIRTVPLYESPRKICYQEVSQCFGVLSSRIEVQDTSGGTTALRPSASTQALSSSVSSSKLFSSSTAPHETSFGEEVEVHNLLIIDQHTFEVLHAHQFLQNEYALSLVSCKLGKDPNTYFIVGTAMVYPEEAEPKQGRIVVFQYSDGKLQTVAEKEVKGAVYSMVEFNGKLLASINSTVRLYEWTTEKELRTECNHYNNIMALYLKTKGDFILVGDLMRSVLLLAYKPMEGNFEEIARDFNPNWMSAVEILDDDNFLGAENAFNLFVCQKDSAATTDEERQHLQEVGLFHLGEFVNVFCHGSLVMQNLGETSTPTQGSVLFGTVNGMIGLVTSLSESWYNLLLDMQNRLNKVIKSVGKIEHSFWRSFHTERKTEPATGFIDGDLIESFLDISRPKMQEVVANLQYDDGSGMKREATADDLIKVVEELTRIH
T1 sequence (Q9UKT9 whole entry): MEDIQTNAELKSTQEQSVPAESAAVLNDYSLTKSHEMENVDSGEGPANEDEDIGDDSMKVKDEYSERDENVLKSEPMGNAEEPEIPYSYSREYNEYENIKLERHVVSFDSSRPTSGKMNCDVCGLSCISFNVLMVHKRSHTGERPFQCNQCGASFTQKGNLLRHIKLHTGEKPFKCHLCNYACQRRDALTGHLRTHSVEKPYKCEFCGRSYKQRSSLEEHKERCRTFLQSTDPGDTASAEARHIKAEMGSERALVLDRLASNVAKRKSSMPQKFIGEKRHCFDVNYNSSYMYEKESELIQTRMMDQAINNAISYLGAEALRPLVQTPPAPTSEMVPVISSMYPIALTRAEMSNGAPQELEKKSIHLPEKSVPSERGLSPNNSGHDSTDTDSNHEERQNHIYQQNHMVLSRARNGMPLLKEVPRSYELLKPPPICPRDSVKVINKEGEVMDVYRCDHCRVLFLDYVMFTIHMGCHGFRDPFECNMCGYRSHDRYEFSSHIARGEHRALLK
In short: (§1)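 Clonal HEK 293T lines stably expressing the IKZF-(GGGGS)3-mNeonGreen-P2A-mScarlet reporter were treated with compound for 24 h at 37 °C (≤0.5% DMSO, quadruplicate). Live imaging scored percent mNeonGreen-positive cells, with mScarlet used for segmentation. DC50 came from four-parameter logistic fits.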

IKZF2 (Helios) [1] = molecular target: T2, IKZF2 (Helios) (Homo sapiens, UniProt Q96SW2+Q9UKS7); test: IKZF2 reporter degradation assay (HEK 293T IKZF2-mNeonGreen reporter cell line); details: HEK-293T, 24 h, @ 1 μM, HEK 293T IKZF2-mNeonGreen reporter, 24 hours incubation
T2 construct: Leu-Asp junction (codons ctcgac before the linker); mScarlet (behind P2A) (C, cleaved yes); expressed in transfected cells
T2 sequence (Q9UKS7 whole entry): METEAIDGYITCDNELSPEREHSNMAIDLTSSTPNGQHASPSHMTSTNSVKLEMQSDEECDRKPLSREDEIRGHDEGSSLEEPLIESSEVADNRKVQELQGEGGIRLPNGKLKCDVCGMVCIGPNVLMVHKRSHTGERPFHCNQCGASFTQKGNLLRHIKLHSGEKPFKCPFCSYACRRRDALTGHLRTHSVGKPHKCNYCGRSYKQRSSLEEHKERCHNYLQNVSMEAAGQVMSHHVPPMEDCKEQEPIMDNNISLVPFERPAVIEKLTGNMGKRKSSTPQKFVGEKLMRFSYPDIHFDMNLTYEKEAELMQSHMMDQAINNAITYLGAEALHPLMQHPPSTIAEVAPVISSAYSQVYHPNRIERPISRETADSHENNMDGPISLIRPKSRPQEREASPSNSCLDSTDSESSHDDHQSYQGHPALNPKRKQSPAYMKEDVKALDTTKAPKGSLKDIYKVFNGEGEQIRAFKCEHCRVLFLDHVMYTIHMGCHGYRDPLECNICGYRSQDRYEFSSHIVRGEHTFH
T2 sequence (Q96SW2 whole entry): as the sequence (Q96SW2 whole entry partner) above
T2 sequence (Q16531 whole entry partner): as the sequence (Q16531 whole entry partner) above
In short: as §1

IKZF2 (Helios) [2] = molecular target: T3, IKZF2 (Helios) (Homo sapiens, UniProt Q9UKS7); test: as above; details: HEK 293T IKZF2-mNeonGreen reporter, 24 hours incubation
T3 construct: Leu-Asp junction (codons ctcgac before the linker); mScarlet (behind P2A) (C, cleaved yes); expressed in transfected cells
T3 sequence (Q9UKS7 whole entry): as the sequence (Q9UKS7 whole entry) above
T3 sequence (Q96SW2 whole entry, further chain): as the sequence (Q96SW2 whole entry partner) above
T3 sequence (Q16531 whole entry partner): as the sequence (Q16531 whole entry partner) above
In short: as §1

GSPT1 = molecular target: T4, GSPT1 (Homo sapiens, UniProt P15170); test: GSPT1 reporter degradation assay (HEK293 hGSPT1 HiBiT-tagged cells); details: 24 hour incubation
T4 construct: HiBiT-tagged cells were generated using CRISPR-Cas12a technology; endogenous in cells; host or cells: HEK293 (endogenous GSPT1 locus edited with HiBiT knock-in)
T4 sequence (Q96SW2 whole entry partner): as the sequence (Q96SW2 whole entry partner) above
T4 sequence (Q16531 whole entry partner): as the sequence (Q16531 whole entry partner) above
T4 sequence (P15170 whole entry): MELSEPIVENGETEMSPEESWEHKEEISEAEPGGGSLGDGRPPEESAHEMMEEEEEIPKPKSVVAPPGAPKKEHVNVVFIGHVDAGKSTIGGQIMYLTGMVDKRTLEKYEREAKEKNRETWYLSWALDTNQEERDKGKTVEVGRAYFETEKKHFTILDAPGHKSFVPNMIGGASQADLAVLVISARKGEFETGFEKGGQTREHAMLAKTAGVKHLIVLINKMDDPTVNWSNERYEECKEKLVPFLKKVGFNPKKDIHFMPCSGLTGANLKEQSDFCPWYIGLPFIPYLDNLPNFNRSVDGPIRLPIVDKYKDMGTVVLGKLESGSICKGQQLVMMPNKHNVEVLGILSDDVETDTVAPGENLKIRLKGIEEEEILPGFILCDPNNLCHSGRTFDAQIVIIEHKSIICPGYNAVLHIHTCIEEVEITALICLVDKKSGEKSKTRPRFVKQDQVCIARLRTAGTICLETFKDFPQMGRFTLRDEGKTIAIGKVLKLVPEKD
Experimental: HEK293_hGSPTl_HiBiT-tagged cells were generated using CRISPR-Cas12a technology. Briefly, ˜400,000 HEK293 cells were transiently co-transfected with precomplexed ribonuclear proteins (RNPs) consisting of 80 pmol of crRNA (IDT), 62 pmol of Cas12a protein (IDT), 3 μg of ssODN donor (IDT; Alt® modifications), 78 pmol of electroporation enhancer (IDT), and 200 ng of pMaxGFP (Lonza). The transfection was performed via nucleofection (Lonza, 4D-Nucleofector X-unit) using solution P3 and program CM-130 in a ([…]) cuvette. Five days post-nucleofection, cells were single-cell-sorted for GFP+(transfected) cells by FACs in 96-well plates and clonally selected. Clones were screened and verified for the desired modification via targeted deep sequencing using gene-specific primers with partial Illumina adapter overhangs as previously described. In brief, clonal cell pellets were harvested, lysed, and used to generate gene-specific amplicons with partial Illumina adapters in PCR #1. Amplicons were indexed in PCR #2 and pooled with other targeted amplicons for other loci to create sequence diversity. Additionally, 10% PhiX sequencing control V3 (Illumina) was added to the pooled amplicon library prior to running the sample on a Miseq Sequencer System (Illumina) to generate paired 2×250 bp reads. Samples were demultiplexed using the index sequences, fastq files were generated, and NGS analysis was performed using CRIS.py. Final clones were authenticated using the PowerPlex fusion system (Promega) and tested negative for mycoplasma by the MycoAlertTMPlus mycoplasma detection kit (Lonza).
Editing construct sequences and screening primers are outlined below (sequence from 5′ to 3′). hGSPT1Cas12acrRNA, CAGE635.GSPT1.g1: […]; CAGE635.g1.anti.ssODN: ttcctcacagtattgtgcagggtcatcaagaaaatgctta[…] CAGCCGCTCACgtcCttctctggaaccagtttcagaacttttccaattgcaatggtcttacctagaaatgaaattttaa (HiBiT tag and silent blocking modifications to prevent Cas12a recutting after integration are in upper case); CAGE635.hGSPT1.DS.F: […]; CAGE635.hGSPT1.DS.R: GTGAA GTAGGCTTCTGCAGTC.
The GSPT1 degradation assay was carried out by harvesting the HEK 293T reporter cell lines and resuspending the cells in media formulated for reduced background fluorescence (FluoroBrite; Thermo Fisher). The respective cell lines were seeded at a density of 8,000 cells/well into white-opaque 384-well optical grade assay tissue culture plates (Greiner 781080-20). The cells were incubated overnight at 37° C. to allow for attachment to the assay plate. Dilutions of the compounds were prepared in DMSO from 10 mM compound stocks. Test compounds were added in a 10-point dilution series (typically 10 μM to 100 pM) using a TECAN D300e Digital Dispenser with an upper limit of 0.5% final DMSO. Plates were centrifuged at 320×g for 2 minutes at room temperature, and subsequently incubated at 37° C.
After 24 hour incubation with the compounds, the plates were allowed to cool to room temperature for 10 minutes. 30 μL of HiBiT lytic buffer+1:50 HiBiT substrate Solution were added to each well. Plates were centrifuged at 320×g for 2 minutes at room temperature and then incubated with shaking at room temperature for 10 minutes covered with foil. Plates were read on a CLARIOstar microplate reader (BMG LabTech), measuring at 450 nm (donor emission) and 610 nm or 630 nm (acceptor emission). The DC50 values were determined by regression to best fit four-parameter logistic curves using GraphPad Prism.

SMILES	DC50 (IKZF3 (Aiolos)) [nM]	inhibition at 1 µM (IKZF2 (Helios) [1]) [%]	DC50 (IKZF2 (Helios) [2]) [nM]	DC50 (GSPT1) [nM]	inhibition at 1 µM (IKZF3 (Aiolos)) [%]
O=C1CCC(N2Cc3cc(O[C@H]4CCCC[C@@H]4N4CC(C5CCOC5)C4)ccc3C2=O)C(=O)N1 (stereo partly drawn) [Compound 14-A, 3-(1-oxo-5-(((1S,2S)-2-(3-(tetrahydrofuran-3-yl)azetidin-1-yl)cyclohexyl)oxy)isoindolin-2-yl)piperidine-2,6-dione]	> 30000	67.4	28	> 30000	–
CC1(C(=O)N2CCC(C3CN([C@H]4CCCC[C@@H]4Oc4ccc5c(c4)CN(C4CCC(=O)NC4=O)C5=O)C3)CC2)COC1 (stereo partly drawn) [Compound 29-A, 3-(5-(((1S,2S)-2-(3-(1-(3-methyloxetane-3-carbonyl)piperidin-4-yl)azetidin-1-yl)cyclohexyl)oxy)-1-oxoisoindolin-2-yl)piperidine-2,6-dione]	> 30000	83.2	11	> 30000	–
O=C1CCC(N2Cc3cc(O[C@H]4CCCC[C@@H]4N4CC(C5CCN(C(=O)CC6CC6)CC5)C4)ccc3C2=O)C(=O)N1 (stereo partly drawn) [Compound 34-A, 3-(5-(((1S,2S)-2-(3-(1-(2-cyclopropylacetyl)piperidin-4-yl)azetidin-1-yl)cyclohexyl)oxy)-1-oxoisoindolin-2-yl)piperidine-2,6-dione]	544	88	2	> 30000	24.9
CC1CC1C(=O)N1CCC(C2CN([C@H]3CCCC[C@@H]3Oc3ccc4c(c3)CN(C3CCC(=O)NC3=O)C4=O)C2)CC1 (stereo partly drawn) [Compound 35-A, 3-(5-(((1S,2S)-2-(3-(1-(2-methylcyclopropane-1-carbonyl)piperidin-4-yl)azetidin-1-yl)cyclohexyl)oxy)-1-oxoisoindolin-2-yl)piperidine-2,6-dione]	8070	88.2	1	> 30000	23.5
O=C1CCC(N2Cc3cc(O[C@H]4CCCC[C@@H]4N4CC(C5CCOCC5F)C4)ccc3C2=O)C(=O)N1 (stereo partly drawn) [Compound 55-A, 3-(5-(((1S,2S)-2-(3-(3-fluorotetrahydro-2H-pyran-4-yl)azetidin-1-yl)cyclohexyl)oxy)-1-oxoisoindolin-2-yl)piperidine-2,6-dione]	> 30000	83.8	5	> 30000	–
O=C1CCC(N2Cc3cc(O[C@H]4CCCC[C@@H]4N4CC(C5CCN(S(=O)(=O)C6CCC6)CC5)C4)ccc3C2=O)C(=O)N1 (stereo partly drawn) [Compound 57-A, 3-(5-(((1S,2S)-2-(3-(1-(cyclobutylsulfonyl)piperidin-4-yl)azetidin-1-yl)cyclohexyl)oxy)-1-oxoisoindolin-2-yl)piperidine-2,6-dione]	> 30000	85.4	2	> 30000	–
O=C1CCC(N2Cc3cc(O[C@H]4CCCC[C@@H]4N4CC(c5ccc6cccnc6c5)C4)ccc3C2=O)C(=O)N1 (stereo partly drawn) [Compound 87-B, 3-(1-oxo-5-(((1S,2S)-2-(3-(quinolin-7-yl)azetidin-1-yl)cyclohexyl)oxy)isoindolin-2-yl)piperidine-2,6-dione]	> 30000	87.5	4	> 30000	–

Stronger by DC50 (IKZF3 (Aiolos)), values ahead:

DC50 (IKZF3 (Aiolos)) [nM]	inhibition at 1 µM (IKZF2 (Helios) [1]) [%]	DC50 (IKZF2 (Helios) [2]) [nM]	DC50 (GSPT1) [nM]	inhibition at 1 µM (IKZF3 (Aiolos)) [%]	SMILES
110	84.6	8	> 30000	44	N#CC1(C(=O)N2CCC(C3CN([C@H]4CCCC[C@@H]4Oc4ccc5c(c4)CN(C4CCC(=O)NC4=O)C5=O)C3)CC2)CC1 (stereo partly drawn) [Compound 27-A, 1-(4-(1-((1S,2S)-2-((2-(2,6-dioxopiperidin-3-yl)-1-oxoisoindolin-5-yl)oxy)cyclohexyl)azetidin-3-yl)piperidine-1-carbonyl)cyclopropane-1-carbonitrile]
71	84.7	1	> 30000	24.1	O=C1CCC(N2Cc3cc(O[C@H]4CCCC[C@@H]4N4CC(C5CCN(C(=O)C6CC(F)(F)C6)CC5)C4)ccc3C2=O)C(=O)N1 (stereo partly drawn) [Compound 32-A, 3-(5-(((1S,2S)-2-(3-(1-(3,3-difluorocyclobutane-1-carbonyl)piperidin-4-yl)azetidin-1-yl)cyclohexyl)oxy)-1-oxoisoindolin-2-yl)piperidine-2,6-dione]
61	88.2	0.1	> 30000	26.2	CC1(C(=O)N2CCC(C3CN([C@H]4CCCC[C@@H]4Oc4ccc5c(c4)CN(C4CCC(=O)NC4=O)C5=O)C3)CC2)CC1 (stereo partly drawn) [Compound 31-A, 3-(5-(((1S,2S)-2-(3-(1-(1-methylcyclopropane-1-carbonyl)piperidin-4-yl)azetidin-1-yl)cyclohexyl)oxy)-1-oxoisoindolin-2-yl)piperidine-2,6-dione]
21	87.3	1	> 30000	31	O=C1CCC(N2Cc3cc(O[C@H]4CCCC[C@@H]4N4CC(C5CCN(C(=O)C6(F)CC6)CC5)C4)ccc3C2=O)C(=O)N1 (stereo partly drawn) [Compound 42-A, 3-(5-(((1S,2S)-2-(3-(1-(1-fluorocyclopropane-1-carbonyl)piperidin-4-yl)azetidin-1-yl)cyclohexyl)oxy)-1-oxoisoindolin-2-yl)piperidine-2,6-dione]
14	84.4	0.5	> 30000	63.4	N#CC1(C(=O)N2CCC(C3CN([C@H]4CCCC[C@@H]4Oc4ccc5c(c4)CN(C4CCC(=O)NC4=O)C5=O)C3)CC2)CCC1 (stereo partly drawn) [Compound 30-A, 1-(4-(1-((1S,2S)-2-((2-(2,6-dioxopiperidin-3-yl)-1-oxoisoindolin-5-yl)oxy)cyclohexyl)azetidin-3-yl)piperidine-1-carbonyl)cyclobutane-1-carbonitrile]
13	82.5	2	> 30000	67.5	CC12CC(C(=O)N3CCC(C4CN([C@H]5CCCC[C@@H]5Oc5ccc6c(c5)CN(C5CCC(=O)NC5=O)C6=O)C4)CC3)(C1)C2 (stereo partly drawn) [Compound 28-A, 3-(5-(((1S,2S)-2-(3-(1-(3-methylbicyclo[1.1.1]pentane-1-carbonyl)piperidin-4-yl)azetidin-1-yl)cyclohexyl)oxy)-1-oxoisoindolin-2-yl)piperidine-2,6-dione]
6	88.4	–	> 30000	60.8	CC1(C(=O)N2CCC(C3CN([C@H]4CCCC[C@@H]4Oc4ccc5c(c4)CN(C4CCC(=O)NC4=O)C5=O)C3)CC2)CCCC1 (stereo partly drawn) [Compound 33-A, 3-(5-(((1S,2S)-2-(3-(1-(1-methylcyclopentane-1-carbonyl)piperidin-4-yl)azetidin-1-yl)cyclohexyl)oxy)-1-oxoisoindolin-2-yl)piperidine-2,6-dione]
